Measurements: a compilation of properties of binary mixtures (doi:10.2298/jsc190413047v)

Assay: xn = mol fraction of the nth substance listed
Details: 100 kPa

O=C1CCCCO1 + CCCC[n+]1ccn(C)c1.O=S(=O)([N-]S(=O)(=O)C(F)(F)F)C(F)(F)F
electrical conductivity [S/m]
Details	293.15 K	298.15 K	303.15 K	308.15 K	313.15 K	318.15 K	323.15 K
x2 = 0.0532	0.167	0.18	0.195	–	0.225	0.244	–
x2 = 0.1004	0.395	–	–	–	0.553	0.595	0.636
x2 = 0.1504	–	0.658	–	0.779	0.848	0.924	–
x2 = 0.1999	0.655	0.725	0.797	0.87	0.952	–	–
x2 = 0.2988	0.67	0.744	0.822	–	0.984	1.07	1.16
x2 = 0.4006	–	–	0.741	0.818	0.905	0.99	1.08
x2 = 0.5005	0.522	–	0.669	0.749	0.827	0.92	1.01
x2 = 0.5999	0.411	–	0.559	0.637	0.72	0.815	0.928
x2 = 0.7214	0.385	0.453	0.532	–	0.697	0.789	–
x2 = 0.8475	–	0.418	0.495	0.575	0.658	0.754	0.858
x2 = 0.9003	0.34	0.412	0.484	0.563	0.646	0.745	0.846

CCCC[n+]1ccn(C)c1.O=S(=O)([N-]S(=O)(=O)C(F)(F)F)C(F)(F)F + O=C1CCCO1
x2 = 0
Details	electrical conductivity [S/m]	viscosity [mPa·s]
293.15 K	0.337	62.1
308.15 K	0.552	33.65
313.15 K	0.64	28.28
318.15 K	0.733	23.91
323.15 K	0.835	20.64

CCCCn1cc[n+](C)c1C.O=S(=O)([N-]S(=O)(=O)C(F)(F)F)C(F)(F)F + O=C1CCCO1
electrical conductivity [S/m]
Details	293.15 K	298.15 K	303.15 K	308.15 K	313.15 K	318.15 K	323.15 K
x2 = 0	0.178	0.23	0.289	0.351	0.426	–	–
x2 = 0.1014	–	0.262	0.325	0.398	–	0.569	0.669
x2 = 0.1987	0.246	0.301	0.367	0.442	0.525	0.619	0.739
x2 = 0.3	–	0.37	–	–	0.631	0.729	0.842
x2 = 0.4001	0.381	0.465	0.567	0.67	0.787	0.904	1.03
x2 = 0.4995	0.511	0.613	0.722	0.861	0.976	1.1	1.27
x2 = 0.5994	0.706	0.807	0.934	1.07	1.22	1.36	1.52
x2 = 0.7012	0.882	1.01	1.14	–	–	–	1.74
x2 = 0.8001	–	1.25	1.39	1.53	1.68	1.83	1.99
x2 = 0.8496	1.19	1.31	1.45	1.58	1.72	1.85	2
x2 = 0.8996	1.18	–	1.41	1.53	1.66	1.78	1.91
x2 = 0.9468	0.849	0.927	–	1.1	1.2	1.3	1.41

CC[n+]1ccn(C)c1C.O=S(=O)([N-]S(=O)(=O)C(F)(F)F)C(F)(F)F + O=C1CCCO1
electrical conductivity [S/m]
Details	293.15 K	298.15 K	303.15 K	308.15 K	313.15 K	318.15 K	323.15 K
x2 = 0	0.309	–	0.468	0.567	0.67	0.783	–
x2 = 0.0999	0.383	0.472	0.574	0.684	0.805	0.938	–
x2 = 0.186	0.476	0.572	0.686	0.803	0.934	1.07	1.21
x2 = 0.3071	–	0.742	0.868	1.01	1.16	1.31	1.45
x2 = 0.4005	0.726	0.864	1.01	1.17	1.33	1.5	1.61
x2 = 0.4996	0.881	1.01	1.17	–	1.51	–	1.81
x2 = 0.5987	1.06	1.22	1.37	1.53	1.7	1.88	–
x2 = 0.6999	1.24	–	1.57	1.74	1.91	2.08	2.21
x2 = 0.7999	–	–	1.69	1.85	2.01	2.19	2.39
x2 = 0.8474	1.43	1.58	1.73	1.86	2.01	2.15	–
x2 = 0.8999	1.35	1.48	1.6	–	–	1.97	2.07
x2 = 0.9507	–	1	1.08	1.16	1.24	1.32	–

O=C1CCCO1 + CCCC[N+]1(C)CCCC1.O=S(=O)([N-]S(=O)(=O)C(F)(F)F)C(F)(F)F
x1 = 1
Details	electrical conductivity [S/m]	viscosity [mPa·s]
298.15 K	0.001	1.73
303.15 K	0.001	1.63
308.15 K	0.001	1.52
313.15 K	0.001	1.42
318.15 K	0.001	1.35
323.15 K	0.002	1.3

CCCC[n+]1ccn(C)c1.O=S(=O)([N-]S(=O)(=O)C(F)(F)F)C(F)(F)F + O=C1CCCCO1
x1 = 1
Details	electrical conductivity [S/m]
293.15 K	0.337
303.15 K	0.472
308.15 K	0.552
313.15 K	0.64
323.15 K	0.835

CCCCCCCCn1cc[n+](C)c1.O=S(=O)([N-]S(=O)(=O)C(F)(F)F)C(F)(F)F + O=C1CCCO1
electrical conductivity [S/m]
Details	x2 = 0	x2 = 0.0997	x2 = 0.2993	x2 = 0.5048	x2 = 0.6963	x2 = 0.7994	x2 = 0.8503	x2 = 0.8999	x2 = 0.9514
293.15 K	0.106	0.126	0.184	–	0.601	0.845	0.953	0.984	0.653
298.15 K	–	0.161	0.235	0.396	–	0.955	1.06	1.07	0.718
303.15 K	0.17	0.199	0.28	0.474	0.83	1.07	1.17	1.18	–
308.15 K	–	0.24	0.342	0.553	0.94	1.21	1.29	1.29	0.853
313.15 K	0.254	0.285	–	0.636	1.06	1.33	1.41	1.39	0.915
318.15 K	–	–	0.48	0.744	1.19	1.47	1.53	–	0.976
323.15 K	0.361	0.397	–	0.817	1.33	1.56	1.64	1.59	–

CCCC[N+]1(C)CCCC1.O=S(=O)([N-]S(=O)(=O)C(F)(F)F)C(F)(F)F + O=C1CCCO1
Details	electrical conductivity [S/m]	viscosity [mPa·s]
298.15 K, x2 = 0	0.277	76.7
298.15 K, x2 = 0.1075	0.329	58.5
298.15 K, x2 = 0.2019	0.394	44.4
298.15 K, x2 = 0.3004	0.468	34.2
298.15 K, x2 = 0.3996	0.554	24.5
298.15 K, x2 = 0.5044	0.726	16.91
298.15 K, x2 = 0.5999	0.953	12.03
298.15 K, x2 = 0.7009	1.24	8.13
298.15 K, x2 = 0.7997	1.47	5.31
298.15 K, x2 = 0.8509	1.55	–
298.15 K, x2 = 0.9	1.46	3.32
298.15 K, x2 = 0.9498	1.12	–
303.15 K, x2 = 0	0.338	61.7
303.15 K, x2 = 0.1075	0.381	47.8
303.15 K, x2 = 0.3004	0.545	28.4
303.15 K, x2 = 0.3996	0.654	20.78
303.15 K, x2 = 0.5044	0.818	14.5
303.15 K, x2 = 0.5999	1.08	10.43
303.15 K, x2 = 0.7009	1.37	7.18
303.15 K, x2 = 0.7997	1.63	4.78
303.15 K, x2 = 0.8509	1.72	–
303.15 K, x2 = 0.9	1.59	3.04
303.15 K, x2 = 0.9498	1.22	–
308.15 K, x2 = 0	0.412	50.5
308.15 K, x2 = 0.2019	0.545	30.6
308.15 K, x2 = 0.3996	0.758	17.56
308.15 K, x2 = 0.5044	0.92	12.58
308.15 K, x2 = 0.5999	1.21	9.19
308.15 K, x2 = 0.7009	1.52	6.39
308.15 K, x2 = 0.7997	1.8	4.35
308.15 K, x2 = 0.8509	1.89	–
308.15 K, x2 = 0.9	1.72	2.79
313.15 K, x2 = 0	0.491	41.7
313.15 K, x2 = 0.1075	0.538	32.9
313.15 K, x2 = 0.2019	0.621	26.1
313.15 K, x2 = 0.3004	0.736	20.38
313.15 K, x2 = 0.3996	0.865	15.37
313.15 K, x2 = 0.5044	1.02	11.12
313.15 K, x2 = 0.5999	1.34	8.16
313.15 K, x2 = 0.7997	1.97	3.96
313.15 K, x2 = 0.8509	2.06	–
313.15 K, x2 = 0.9	1.85	2.57
318.15 K, x2 = 0	0.579	34.7
318.15 K, x2 = 0.1075	0.616	27.6
318.15 K, x2 = 0.3004	0.812	17.43
318.15 K, x2 = 0.3996	0.971	13.26
318.15 K, x2 = 0.5044	1.15	9.7
318.15 K, x2 = 0.5999	1.45	7.2
318.15 K, x2 = 0.7009	1.83	5.14
318.15 K, x2 = 0.7997	2.14	3.6
318.15 K, x2 = 0.9	1.99	2.38
323.15 K, x2 = 0	0.672	29.5
323.15 K, x2 = 0.1075	0.713	23.1
323.15 K, x2 = 0.2019	0.785	19.22
323.15 K, x2 = 0.3996	1.08	11.55
323.15 K, x2 = 0.5044	1.28	8.62
323.15 K, x2 = 0.7997	2.31	3.31
323.15 K, x2 = 0.8509	2.4	–
323.15 K, x2 = 0.9	2.12	2.21
